Where two headings read alike, the source gives them in different places.
Assays:
Cbl-b = Cbl-b (Homo sapiens (Human), UniProt Q13191); assay: Cbl-b displacement assay (Cbl-b inhibition assay), Biological Example 1; assay type: binding
Experimental: Candidate compounds were evaluated for their ability to bind and inhibit Cbl-b, an E3 ubiquitin-protein ligase, as evidenced by their ability to displace a fluorophore-labeled probe (Example 59) bound to Cbl-b.
The ability of candidate compounds to displace a known inhibitor and thereby inhibit Cbl-b activity was measured by monitoring the interaction of Cbl-b with a fluorophore-labeled probe in the presence of the candidate compound. A truncated variant of Cbl-b (UniProt number Q13191; SEQ ID NO:1) containing an Avitag at its N-terminus was co-expressed with BirA biotin ligase and purified using a standard protocol (see Dou et al., Nature Structural and Molecular Biology, 8: 982-987, 2013; Avidity LLC).
Cbl-b Amino Acid Residues 36-427:
Fluorescently-labeled inhibitor probe was synthesized and tagged with BODIPY FL (Example 59). Cbl-b displacement assays were performed in a 384-well plate at room temperature in a 10 μL reaction volume by pre-incubating 0.5 nM Cbl-b or 0.125 nM Cbl-b (final concentration, indicated as “High” and “Low”, respectively) in an assay buffer containing 20 mM HEPES pH 7.5, 150 mM NaCl, 0.01% Triton X-100, 0.01% BSA and 0.5 mM TCEP in the presence of a candidate compound in 1% DMSO (final concentration) for 1 hour. After incubation in the presence of the candidate compound, the plate was incubated for an additional 1 hour in the presence of an approximate EC40 binding saturation consisting of 150 nM fluorescently-labeled inhibitor probe and 2 nM Streptavidin-Terbium (Cisbio) (final concentrations). Following the 1 hour incubation, the plates were read for TR-FRET signal at […] using an Envision plate reader (Perkin Elmer).

[1] = system: primary human total T-cells; assay: T-cell activation, CD25 surface staining, Biological Example 2; assay type: cell-based; conditions: 48 hours, fold change over baseline; for fold induction at 0.3 µM: 0.3 μM inhibitor; for fold induction at 1 µM: 1 μM inhibitor; for fold induction at 3 µM: 3 μM inhibitor
[2] = system: primary human total T-cells; assay: T-cell activation, IL-2 secretion, Biological Example 2; assay type: cell-based; conditions: 48 hours, fold change over baseline; for fold induction at 0.3 µM: 0.3 μM inhibitor; for fold induction at 1 µM: 1 μM inhibitor; for fold induction at 3 µM: 3 μM inhibitor
[3] = 0.125 nM Cbl-b final concentration (Low), read-out: Cbl-b activity IC50 (Low)
[4] = anti-CD3 and anti-CD28 co-stimulation
[5] = anti-CD3 and anti-CD28 co-stimulation, read-out: CD25 staining CD3/CD28 1 μM
[6] = anti-CD3 stimulation alone, read-out: CD25 staining CD3 1 μM
[7] = anti-CD3 and anti-CD28 co-stimulation, read-out: IL-2 secretion CD3/CD28 1 μM
[8] = anti-CD3 stimulation alone, read-out: IL-2 secretion CD3 1 μM
[9] = read-out: IC50 values in the Cbl-b inhibition assay of Biological Example 1

Cbl-b, sequence (Q13191 36-427): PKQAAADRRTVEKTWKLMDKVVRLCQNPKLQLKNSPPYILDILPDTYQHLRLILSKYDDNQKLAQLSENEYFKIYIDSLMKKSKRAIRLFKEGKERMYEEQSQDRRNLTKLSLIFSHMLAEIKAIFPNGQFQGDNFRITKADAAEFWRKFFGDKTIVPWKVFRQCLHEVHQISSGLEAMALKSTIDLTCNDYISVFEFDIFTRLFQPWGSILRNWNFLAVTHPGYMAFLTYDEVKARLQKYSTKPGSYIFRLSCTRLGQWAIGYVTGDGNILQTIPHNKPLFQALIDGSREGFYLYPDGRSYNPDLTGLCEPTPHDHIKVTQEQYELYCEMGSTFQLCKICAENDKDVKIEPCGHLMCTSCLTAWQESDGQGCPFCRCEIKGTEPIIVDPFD

Row | Compound | IC50 (Cbl-b; [3]) [nM] | fold induction at 0.3 µM [1, 4] | fold induction at 1 µM [1, 5] | fold induction at 1 µM [1, 6] | fold induction at 3 µM ([1]; anti-CD3 stimulation alone) | fold induction at 0.3 µM [2, 4] | fold induction at 1 µM [2, 7] | fold induction at 1 µM [2, 8] | fold induction at 3 µM ([2]; anti-CD3 stimulation alone) | IC50 (Cbl-b; [9]) [nM]
1 | Cn1cnnc1C[C@]1(c2cccc(N3Cc4c(cc(CN5CCC[C@H](C(F)(F)F)C5)cc4C(F)(F)F)C3=O)c2)C[C@H](C#N)C1 [Compound 14, (1R,3r)-3-((4-methyl-4H-1,2,4-triazol-3-yl)methyl)-3-(3-(1-oxo-4-(trifluoromethyl)-6-(((S)-3-(trifluoromethyl)piperidin-1-yl)methyl)isoindolin-2-yl)phenyl)cyclobutane-1-carbonitrile] | 2 to 5 | ≤ 1.24 | ≤ 1.24 | ≤ 1 | ≤ 1 | 15 to 20 | 15 to 20 | 0.4 to 0.85 | 0.4 to 0.85 | 
2 | C[C@@H]1CN(Cc2cc3c(c(C(F)(F)F)c2)CN(c2cccc([C@]4(Cc5nncn5C)C[C@@H](C#N)C4)c2)C3=O)C[C@H](C)O1 [Compound 15, (1R,3r)-3-(3-(6-(((2R,6S)-2,6-dimethylmorpholino)methyl)-1-oxo-4-(trifluoromethyl)isoindolin-2-yl)phenyl)-3-((4-methyl-4H-1,2,4-triazol-3-yl)methyl)cyclobutane-1-carbonitrile] | 2 to 5 | 1.24 to 1.39 | 1.24 to 1.39 | 1 to 1.15 | 1 to 1.15 | ≤ 15 | 15 to 20 | 0.4 to 0.85 | > 0.85 | 
3 | Cn1cnnc1C[C@]1(c2cccc(N3Cc4c(cc(CN5CCO[C@H](C(F)(F)F)C5)cc4C(F)(F)F)C3=O)c2)C[C@H](C#N)C1 [Compound 16, (1S,3r)-3-((4-methyl-4H-1,2,4-triazol-3-yl)methyl)-3-(3-(1-oxo-4-(trifluoromethyl)-6-(((S)-2-(trifluoromethyl)morpholino)methyl)isoindolin-2-yl)phenyl)cyclobutane-1-carbonitrile] | 1 to 2 | 1.24 to 1.39 | 1.24 to 1.39 | 1 to 1.15 | ≤ 1 | ≤ 15 | 15 to 20 | 0.4 to 0.85 | > 0.85 | 1 to 2
4 | Cn1cnnc1C[C@]1(c2cccc(N3Cc4c(cc(CN5CCCC(F)(F)CC5)cc4C(F)(F)F)C3=O)c2)C[C@H](C#N)C1 [Compound 17, (1r,3r)-3-(3-(6-((4,4-difluoroazepan-1-yl)methyl)-1-oxo-4-(trifluoromethyl)isoindolin-2-yl)phenyl)-3-((4-methyl-4H-1,2,4-triazol-3-yl)methyl)cyclobutane-1-carbonitrile] | 1 to 2 | 1.24 to 1.39 | 1.24 to 1.39 | 1 to 1.15 | ≤ 1 | 15 to 20 | > 20 | 0.4 to 0.85 | 0.4 to 0.85 | 1 to 2
5 | C[C@@H]1C[C@H](C)CN(Cc2cc3c(c(C(F)(F)F)c2)CN(c2cccc([C@]4(Cc5nncn5C)C[C@@H](C#N)C4)c2)C3=O)C1 [Compound 18, (1R,3r)-3-(3-(6-(((3S,5R)-3,5-dimethylpiperidin-1-yl)methyl)-1-oxo-4-(trifluoromethyl)isoindolin-2-yl)phenyl)-3-((4-methyl-4H-1,2,4-triazol-3-yl)methyl)cyclobutane-1-carbonitrile] | < 1 | 1.24 to 1.39 | 1.24 to 1.39 | 1 to 1.15 | ≤ 1 | > 20 | > 20 | > 0.85 | > 0.85 | 
6 | CN(Cc1cc2c(c(C(F)(F)F)c1)CN(c1cccc([C@]3(Cc4nncn4C)C[C@@H](C#N)C3)c1)C2=O)C1CC(F)(F)C1 [Compound 22, (1r,3r)-3-(3-(6-(((3,3-difluorocyclobutyl)(methyl)amino)methyl)-1-oxo-4-(trifluoromethyl)isoindolin-2-yl)phenyl)-3-((4-methyl-4H-1,2,4-triazol-3-yl)methyl)cyclobutane-1-carbonitrile] | 2 to 5 | > 1.39 | > 1.39 | 1 to 1.15 | 1 to 1.15 | ≤ 15 | ≤ 15 | 0.4 to 0.85 | 0.4 to 0.85 | 2 to 5
7 | Cn1cnnc1C[C@]1(c2cccc(N3Cc4c(cc(CNC5CC6(C5)CC6(F)F)cc4C(F)(F)F)C3=O)c2)C[C@H](C#N)C1 (stereo partly drawn) [Compound 23, (1r,3r)-3-(3-(6-(((1,1-difluorospiro[2.3]hexan-5-yl)amino)methyl)-1-oxo-4-(trifluoromethyl)isoindolin-2-yl)phenyl)-3-((4-methyl-4H-1,2,4-triazol-3-yl)methyl)cyclobutane-1-carbonitrile] | 1 to 2 | 1.24 to 1.39 | 1.24 to 1.39 | 1 to 1.15 | 1 to 1.15 | 15 to 20 | 15 to 20 | 0.4 to 0.85 | 0.4 to 0.85 | 1 to 2
8 | Cn1cnnc1C[C@]1(c2cccc(N3Cc4c(cc(CNC5COC(C)(C)C5)cc4C(F)(F)F)C3=O)c2)C[C@H](C#N)C1 (stereo partly drawn) [Compound 24, (1r,3r)-3-(3-(6-(((5,5-dimethyltetrahydrofuran-3-yl)amino)methyl)-1-oxo-4-(trifluoromethyl)isoindolin-2-yl)phenyl)-3-((4-methyl-4H-1,2,4-triazol-3-yl)methyl)cyclobutane-1-carbonitrile] | 2 to 5 | 1.24 to 1.39 | 1.24 to 1.39 | > 1.15 | 1 to 1.15 | ≤ 15 | 15 to 20 | 0.4 to 0.85 | 0.4 to 0.85 | 2 to 5
9 | CC1CCCCN(Cc2cc3c(c(C(F)(F)F)c2)CN(c2cccc([C@]4(Cc5nncn5C)C[C@@H](C#N)C4)c2)C3=O)C1 (stereo partly drawn) [Compound 25, (1r,3r)-3-((4-methyl-4H-1,2,4-triazol-3-yl)methyl)-3-(3-(6-((3-methylazepan-1-yl)methyl)-1-oxo-4-(trifluoromethyl)isoindolin-2-yl)phenyl)cyclobutane-1-carbonitrile] | < 1 | 1.24 to 1.39 | 1.24 to 1.39 | 1 to 1.15 | ≤ 1 | > 20 | > 20 | > 0.85 | > 0.85 | < 1
10 | Cn1cnnc1C[C@]1(c2cccc(N3Cc4c(cc(CN5CCCCC(C)(F)C5)cc4C(F)(F)F)C3=O)c2)C[C@H](C#N)C1 (stereo partly drawn) [Compound 26, (1r,3r)-3-(3-(6-((3-fluoro-3-methylazepan-1-yl)methyl)-1-oxo-4-(trifluoromethyl)isoindolin-2-yl)phenyl)-3-((4-methyl-4H-1,2,4-triazol-3-yl)methyl)cyclobutane-1-carbonitrile] | 2 to 5 | ≤ 1.24 | ≤ 1.24 | ≤ 1 | ≤ 1 | ≤ 15 | ≤ 15 | < 0.4 | < 0.4 | 
